In PubChem BioAssay AID256 (DTP/NCI, 2004) one finds T/C data, which are given here for 20 molecules.

The test concerns CD2F1 mice, L1210 leukemia ip, survival T/C. The test is described as follows: NCI In Vivo Anticancer Drug Screen. Data for tumor model L1210 Leukemia (intraperitoneal) in CD2F1 (CDF1) mice. Conditions: higher = longer survival. The method, boiled down: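 Activity against a transplanted murine tumor was judged by comparing the compound group with a vehicle group. The outcome in the treated animals was divided by that in the controls.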

[1] abbreviates: endpoint: mean survival time, dose: 100.0 mg/kg/injection, schedule: Q01DX009 (ip), vehicle: saline with Tween-80.
Where [2] appears, read: endpoint: mean survival time, dose: 100.0 mg/kg/injection, schedule: Q04DX003 (ip), vehicle: saline with Tween-80.
Where [3] appears, read: endpoint: mean survival time, dose: 200.0 mg/kg/injection, schedule: Q01DX009 (ip), vehicle: saline with Tween-80.
The mark [4] stands for this setting: endpoint: mean survival time, dose: 200.0 mg/kg/injection, schedule: Q04DX003 (ip), vehicle: saline with Tween-80.
Where [5] appears, read: endpoint: mean survival time, dose: 100.0 mg/kg/injection, schedule: Q04DX002 (ip), vehicle: saline with Tween-80.
Setting [6] is: endpoint: mean survival time, dose: 200.0 mg/kg/injection, schedule: Q04DX002 (ip), vehicle: saline with Tween-80.
The mark [7] stands for this setting: endpoint: mean survival time, dose: 400.0 mg/kg/injection, schedule: Q04DX002 (ip), vehicle: saline with Tween-80.
Setting [8] is: endpoint: mean survival time, dose: 100.0 mg/kg/injection, schedule: Q01DX001 (ip), vehicle: saline with Tween-80.
The mark [9] stands for this setting: endpoint: mean survival time, dose: 200.0 mg/kg/injection, schedule: Q01DX001 (ip), vehicle: saline with Tween-80.
[10] abbreviates: endpoint: mean survival time, dose: 400.0 mg/kg/injection, schedule: Q01DX001 (ip), vehicle: saline with Tween-80.
Where [11] appears, read: endpoint: mean survival time, dose: 75.0 mg/kg/injection, schedule: Q01DX001 (ip), vehicle: saline.

“And” between values parts separate entries of the source, which are not always exact repeats. Equal entries are not always repeated. Toxic doses and inconclusive results are not listed.

As to `c1ccc2cc(N=NNc3ccc4ccccc4c3)ccc2c1`, the T/C runs as follows: (endpoint: mean survival time, dose: 50.0 mg/kg/injection, schedule: Q01DX009 (ip), vehicle: saline with Tween-80) 94 % of control; under setting [1], 98 % of control; under setting [2], 95 % of control; under setting [3], 100 % of control; under setting [4], 92 % of control.

As to `O=C(CCN1C(=O)c2ccccc2C1=O)c1ccccc1`, the T/C was 95 % of control under setting [5], 89 % of control under setting [6] and 92 % of control under setting [7].

`CCCCOC(=O)/C=C(\CC(=O)OCCCC)C(=O)OCCCC`: the T/C under setting [8] is 97 % of control, the T/C under setting [9] is 97 % of control and the T/C under setting [10] was 103 % of control.

For `Nc1ccc(CCCCc2ccc(Cl)cc2Cl)cc1`, the T/C under setting [2] is 104 % of control and the T/C under setting [4] was 110 % of control.

Turning to `Cc1ccc(S(=O)(=O)OCC2OCOC(C(O)CI)C2O)cc1` (stereo not drawn), the T/C was 92 % of control under setting [8], 92 % of control under setting [9] and 102 % of control under setting [10].

`Cc1ccc(S(=O)(=O)OC2CCC3C4CCC5=CC(=O)CCC5(C)C4CCC23C)cc1` (stereo not drawn): the T/C reads like this: (endpoint: mean survival time, dose: 75.0 mg/kg/injection, schedule: Q04DX003 (sc), vehicle: steriod suspending solution) 98 % of control; (endpoint: mean survival time, dose: 150.0 mg/kg/injection, schedule: Q04DX003 (sc), vehicle: steriod suspending solution) 98 % of control; (endpoint: mean survival time, dose: 300.0 mg/kg/injection, schedule: Q04DX003 (sc), vehicle: steriod suspending solution) 98 % of control.

As to `CCC1(C)N=C(C)C(C)S1` (stereo not drawn), the T/C by setting is: under setting [1], 89 % of control; under setting [3], 100 % of control; (endpoint: mean survival time, dose: 400.0 mg/kg/injection, schedule: Q01DX009 (ip), vehicle: saline with Tween-80) 91 % of control.

As for `O=C[C@@H](CO)O[C@H](C=O)c1c[nH]c(=O)[nH]c1=O`, the T/C runs as follows: (endpoint: median survival time, dose: 2.5 mg/kg/injection, schedule: Q01DX009 (ip), vehicle: saline) 118 % of control; (endpoint: median survival time, dose: 7.5 mg/kg/injection, schedule: Q04DX003 (ip), vehicle: saline) 102 % of control; (endpoint: median survival time, dose: 12.5 mg/kg/injection, schedule: Q01DX009 (ip), vehicle: water) 124 % of control; (endpoint: median survival time, dose: 15.0 mg/kg/injection, schedule: Q04DX003 (ip), vehicle: saline) 102 % of control; (endpoint: median survival time, dose: 30.0 mg/kg/injection, schedule: Q04DX003 (ip), vehicle: saline) 114 % of control; (endpoint: median survival time, dose: 40.0 mg/kg/injection, schedule: Q01DX009 (ip), vehicle: saline) 158 % of control. Besides, the T/C is, setting by setting: (endpoint: median survival time, dose: 50.0 mg/kg/injection, schedule: Q01DX009 (ip), vehicle: saline) 158 % of control; (endpoint: median survival time, dose: 54.0 mg/kg/injection, schedule: Q04DX003 (ip), vehicle: saline) 156 % of control; (endpoint: median survival time, dose: 60.0 mg/kg/injection, schedule: Q04DX003 (ip), vehicle: saline) 119 % of control; (endpoint: median survival time, dose: 66.7 mg/kg/injection, schedule: Q04DX003 (ip), vehicle: saline) 151 % of control; (endpoint: median survival time, dose: 90.0 mg/kg/injection, schedule: Q04DX003 (ip), vehicle: saline) 178 % of control; (endpoint: median survival time, dose: 100.0 mg/kg/injection, schedule: Q01DX009 (ip), vehicle: water) 89 % of control. Besides, the T/C by setting is: (endpoint: median survival time, dose: 100.5 mg/kg/injection, schedule: Q04DX003 (ip), vehicle: saline) 164 % of control; (endpoint: median survival time, dose: 105.0 mg/kg/injection, schedule: Q04DX003 (ip), vehicle: saline) 229 % of control; (endpoint: median survival time, dose: 120.0 mg/kg/injection, schedule: Q04DX003 (ip), vehicle: saline) 175 % of control and 184 % of control; (endpoint: median survival time, dose: 135.0 mg/kg/injection, schedule: Q04DX003 (ip), vehicle: saline) 164 % of control; (endpoint: median survival time, dose: 165.0 mg/kg/injection, schedule: Q04DX003 (ip), vehicle: saline) 625 % of control; (endpoint: median survival time, dose: 180.0 mg/kg/injection, schedule: Q04DX003 (ip), vehicle: saline) 218 % of control and 228 % of control. For the setting “endpoint: median survival time, dose: 224.9 mg/kg/injection, schedule: Q04DX003 (ip), vehicle: saline”, the T/C was 202 % of control.

Turning to `O=C(O)C(=O)Cc1cccc(Cl)c1[N+](=O)[O-]`, the T/C by setting is: (endpoint: mean survival time, dose: 37.5 mg/kg/injection, schedule: Q01DX009 (ip), vehicle: saline) 97 % of control; (endpoint: mean survival time, dose: 75.0 mg/kg/injection, schedule: Q01DX009 (ip), vehicle: saline) 103 % of control; (endpoint: mean survival time, dose: 150.0 mg/kg/injection, schedule: Q01DX009 (ip), vehicle: saline) 97 % of control.

For `O=C(OCC(F)(F)F)C(Cl)(Cl)Cl`, the T/C was 97 % of control under setting [11]; 107 % of control (endpoint: mean survival time, dose: 150.0 mg/kg/injection, schedule: Q01DX001 (ip), vehicle: saline); 107 % of control (endpoint: mean survival time, dose: 300.0 mg/kg/injection, schedule: Q01DX001 (ip), vehicle: saline).

In the case of `COP(=O)(O)c1ccccc1` (tested in a mixture with another compound), the T/C was 103 % of control (endpoint: mean survival time, dose: 100.0 mg/kg/injection, schedule: Q04DX003 (ip), vehicle: saline); 106 % of control (endpoint: mean survival time, dose: 200.0 mg/kg/injection, schedule: Q04DX003 (ip), vehicle: saline); 95 % of control (endpoint: mean survival time, dose: 400.0 mg/kg/injection, schedule: Q04DX003 (ip), vehicle: saline).

Turning to `O=C1CC2CCCCC2CO1` (stereo not drawn), the T/C under setting [11] was 160 % of control.

Turning to `CCC1(O)C(=O)OCc2c1cc1n(c2=O)Cc2cc3cc4c(cc3nc2-1)OCO4` (stereo not drawn), the T/C runs as follows: (endpoint: median survival time, dose: 1.0 mg/kg/injection, schedule: Q01DX005 (ip), vehicle: saline with Tween-80) 192 % of control; (endpoint: median survival time, dose: 2.0 mg/kg/injection, schedule: Q01DX005 (ip), vehicle: saline with Tween-80) 114 % of control; (endpoint: median survival time, dose: 2.0 mg/kg/injection, schedule: Q04DX002 (ip), vehicle: saline with Tween-80) 325 % of control; (endpoint: median survival time, dose: 4.0 mg/kg/injection, schedule: Q01DX005 (ip), vehicle: saline with Tween-80) 101 % of control; (endpoint: median survival time, dose: 4.0 mg/kg/injection, schedule: Q04DX002 (ip), vehicle: saline with Tween-80) 190 % of control and 228 % of control; (endpoint: median survival time, dose: 16.0 mg/kg/injection, schedule: Q04DX002 (ip), vehicle: saline with Tween-80) 115 % of control and 124 % of control. Moreover, the T/C (endpoint: median survival time, dose: 32.0 mg/kg/injection, schedule: Q04DX002 (ip), vehicle: saline with Tween-80) is 97 % of control.

As to `O=c1cc(-c2ccccc2)nc(N[N+](=O)[O-])[nH]1`, the T/C reads like this: under setting [2], 100 % of control; under setting [4], 94 % of control.

As for `CCN(CC)c1ccc(C)cc1Cl`, the T/C (endpoint: mean survival time, dose: 100.0 mg/kg/injection, schedule: Q04DX003 (ip), vehicle: saline sonified) is 102 % of control.

Take `O=C(/C=C(\Cl)C(=O)NO)NO`: the T/C by setting is: (endpoint: mean survival time, dose: 6.25 mg/kg/injection, schedule: Q01DX009 (ip), vehicle: saline) 101 % of control and 103 % of control; (endpoint: mean survival time, dose: 12.5 mg/kg/injection, schedule: Q01DX009 (ip), vehicle: saline) 94 % of control and 104 % of control; (endpoint: mean survival time, dose: 25.0 mg/kg/injection, schedule: Q01DX009 (ip), vehicle: saline) 95 % of control and 100 % of control; (endpoint: mean survival time, dose: 50.0 mg/kg/injection, schedule: Q01DX009 (ip), vehicle: saline) 115 % of control and 108 % of control; (endpoint: mean survival time, dose: 100.0 mg/kg/injection, schedule: Q01DX009 (ip), vehicle: saline) 113 % of control and 95 % of control.

For the molecule `COCNC(=S)N/N=C/c1ccc(O)cn1`, the T/C by setting is: under setting [5], 95 % of control; under setting [6], 98 % of control; under setting [7], 102 % of control.

For the molecule `CCCCC(=O)/C=C/Sc1n[nH]c(=O)[nH]c1=O`, the T/C was 104 % of control (endpoint: mean survival time, dose: 12.5 mg/kg/injection, schedule: Q01DX005 (ip), vehicle: distilled water + Tween-80); 93 % of control (endpoint: mean survival time, dose: 25.0 mg/kg/injection, schedule: Q01DX005 (ip), vehicle: distilled water + Tween-80); 90 % of control (endpoint: mean survival time, dose: 50.0 mg/kg/injection, schedule: Q01DX005 (ip), vehicle: distilled water + Tween-80).

With `CCCCCCCCC(C(=O)c1ccccc1)C(O)(C(F)(F)F)C(F)(F)F` (stereo not drawn), the T/C under setting [2] is 102 % of control; the T/C under setting [4] was 111 % of control; the T/C (endpoint: mean survival time, dose: 400.0 mg/kg/injection, schedule: Q04DX003 (ip), vehicle: saline with Tween-80) is 102 % of control.

With `C=C(Br)CNC(=O)Nc1c2ccccc2nc2ccccc12`, the T/C is, setting by setting: (endpoint: mean survival time, dose: 25.0 mg/kg/injection, schedule: Q01DX009 (ip), vehicle: Klucel (hydroxypropylcellulose) (HPC)) 97 % of control; (endpoint: mean survival time, dose: 50.0 mg/kg/injection, schedule: Q01DX009 (ip), vehicle: Klucel (hydroxypropylcellulose) (HPC)) 98 % of control; (endpoint: mean survival time, dose: 100.0 mg/kg/injection, schedule: Q01DX009 (ip), vehicle: Klucel (hydroxypropylcellulose) (HPC)) 97 % of control.
